What was measured:
human Eg5 = target: T1, human Eg5 (Homo sapiens, UniProt P52732); assay: steady-state Eg5 ATPase assay (NADH-coupled); type: biochemical; details: library screen
T1 construct: 1 μM microtubules and 40 nM Eg5-367H; His6 (C); made in house; host or cells: pRSETa backbone
T1 sequence (P52732 1-367): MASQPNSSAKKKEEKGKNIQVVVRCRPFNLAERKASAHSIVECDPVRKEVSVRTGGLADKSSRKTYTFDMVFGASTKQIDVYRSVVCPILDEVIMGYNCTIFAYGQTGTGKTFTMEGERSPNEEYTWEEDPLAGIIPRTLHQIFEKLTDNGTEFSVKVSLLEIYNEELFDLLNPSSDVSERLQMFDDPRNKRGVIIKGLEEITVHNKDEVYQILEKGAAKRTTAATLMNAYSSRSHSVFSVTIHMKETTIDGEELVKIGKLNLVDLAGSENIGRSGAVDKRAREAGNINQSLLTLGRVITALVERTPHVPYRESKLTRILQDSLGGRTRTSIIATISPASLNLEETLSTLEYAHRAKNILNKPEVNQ
Description: Coding regions for the expression of C-terminally His6-tagged constructs of human Eg5 were generated by polymerase chain reaction using a pBluescript template containing full length human Eg5 [23] and the following primers: a common N-terminal primer 5′-[…] and specific C-teminal primers; 5′-[…] (hEg5–367H), 5′-[…] (hEg5–405H), 5′-[…] (hEg5–437H). The PCR products were ligated into a pRSETa backbone. Eg5 protein constructs were expressed and purified as described previously [Woehike, G., Ruby, A. K., Hart, C. L., Ly, B., Hom-Booher, N. and Vale, R. D. (1997) Microtubule interaction site of the kinesin motor. Cell. 90, 207–216]. […] The concentration of Eg5 was measured using the Edelhoch [Pace, C. […]
We measured the ATPase activity of Eg5 in vitro using an assay that couples the hydrolysis of ATP to the oxidation of NADH [Woehike, G., Ruby, A. K., Hart, C. […] In the assay, the concentration of ATP remains constant however, the decrease in NADH fluorescence is a convenient measure of the amount of ATP turned over. […] Time-points for NADH fluorescence were measured in 384 well black plates (NalgeneNUNC) by a Wallac Victor^2 1420 multilabel counter, umbelliferone filter set (excitation: 355 nm, emission: 420 nm), and the steady-state rate of fluorescence decay was calculated using a linear fit by Microsoft Excel. […]

[1] = test system: human A549 lung carcinoma cells; assay: genistein suppressor screen (BrdU cytoblot with 100 μM genistein challenge); type: cell-based; details: A549 cells challenged with 100 μM genistein
Description: Both plates of stock solutions (10) were used in phenotypic assays. In particular, we exposed living human A549 lung carcinoma cells to 708 (324+384) stock solutions under two different assay conditions. These experiments were performed with a hand-held pin-transfer tool, though our complete technology platform includes a pin-transfer robot capable of mapping into multiple microtiter plates. In certain embodiments, cultured cells exposed to 5-bromodeoxyuridine (BrdU) will incorporate this base analog into their DNA when actively dividing, and this incorporation can be detected by cytoblot assay using antibodies directed against BrdU (B. R. Stockwell, S. J. Haggarty, S. L. Schreiber, High-throughput screening of small molecules in miniaturized mammalian cell-based assays involving post-translational modifications, Chem. Biol. 6 (1999) 71–83). […] Thus, ‘hits’ in the former assay are detected as a loss of signal in a high-signal array (FIG. 14(a)), while ‘hits’ in the latter assay are detected as a gain of signal in a lowsignal array (FIG. 14(b)). […]
For each of these assays, aliquots from each of the two plates (10) were exposed to cells in duplicate to ensure the fidelity of the results. Compounds were scored as ‘hits’ only if they scored strongly in both replicates of a given experiment. […]

Structure (SMILES) | Eg5 inhibitory activity (human Eg5) | BrdU incorporation judged by cytoblot assay [1]
CCO[C@H]1OC(C(=O)NCc2ccc(F)cc2)=C[C@@H](c2ccccc2)[C@H]1CCCO | found to inhibit Eg5 | 
O=c1c(-c2ccc(O)cc2)coc2cc(O)cc(O)c12 [genistein, 4′,5,7 trihydroxyisoflavone] |  | impaired

Reference: US7186709B2, “Dihydropyrancarboxamides and uses thereof” (President and Fellows of Harvard College, priority 2002, dated 2007)
